# Results: paper PMC5218480 (PLoS ONE, 2017)
# System: MV-4-11 cells
# Assay: Gene expression microarray analysis (Affymetrix PrimeView) and GSEA
# Assay type: cell-based, human
# Parameters: RFU PODN (11730768_x_at) / Fold change /veh PODN (11730768_x_at) / RFU LINC00158 (11744669_a_at) / Fold change /veh LINC00158 (11744669_a_at) / RFU DUSP10 (11751237_a_at) / Fold change /veh DUSP10 (11751237_a_at) / RFU ID3 (11757404_x_at) / Fold change /veh ID3 (11757404_x_at) / RFU PLEKHG5 (11737974_s_at) / Fold change /veh PLEKHG5 (11737974_s_at) / RFU LRRC4B (11730491_at) / Fold change /veh LRRC4B (11730491_at) / RFU GIMAP4 (11747438_a_at) / Fold change /veh GIMAP4 (11747438_a_at) / RFU KRT8 (11758183_x_at) / Fold change /veh KRT8 (11758183_x_at) / RFU CNN1 (11734310_a_at) / Fold change /veh CNN1 (11734310_a_at) / RFU VPS37D (11726825_at) / Fold change /veh VPS37D (11726825_at) / RFU C10orf10 (11716522_x_at) / Fold change /veh C10orf10 (11716522_x_at) / RFU KIR2DL2 /// KIR2DL4 /// KIR2DL5A /// KIR2DL5B /// KIR2DS1 /// KIR2DS2 /// KIR2DS3 /// KIR2DS4 /// KIR3DL3 /// KIR3DL3 /// KIR3DS1 (11738374_at) / Fold change /veh KIR2DL2 /// KIR2DL4 /// KIR2DL5A /// KIR2DL5B /// KIR2DS1 /// KIR2DS2 /// KIR2DS3 /// KIR2DS4 /// KIR3DL3 /// KIR3DL3 /// KIR3DS1 (11738374_at) / RFU C1QL1 (11718748_at) / Fold change /veh C1QL1 (11718748_at) / RFU TMPRSS4 (11747572_a_at) / Fold change /veh TMPRSS4 (11747572_a_at) / RFU HAMP (11756126_x_at) / Fold change /veh HAMP (11756126_x_at) / RFU RNFT2 (11725882_a_at) / Fold change /veh RNFT2 (11725882_a_at) / RFU NR4A2 (11747474_a_at) / Fold change /veh NR4A2 (11747474_a_at) / RFU ABCC12 (11746883_a_at) / Fold change /veh ABCC12 (11746883_a_at) / RFU TMEM136 (11760407_x_at) / Fold change /veh TMEM136 (11760407_x_at) / RFU CLDN22 /// WWC2 (11732394_at) / Fold change /veh CLDN22 /// WWC2 (11732394_at) / RFU HLA-DPB1 (11760878_x_at) / Fold change /veh HLA-DPB1 (11760878_x_at) / RFU SPINT1 (11716480_a_at) / Fold change /veh SPINT1 (11716480_a_at) / RFU GAP43 (11754022_s_at) / Fold change /veh GAP43 (11754022_s_at) / RFU A4GNT (11735810_at) / Fold change /veh A4GNT (11735810_at) / RFU PRB3 (11715151_x_at) / Fold change /veh PRB3 (11715151_x_at) / RFU TUBB4B (11761932_at) / Fold change /veh TUBB4B (11761932_at) / RFU CAPN14 (11732068_a_at) / Fold change /veh CAPN14 (11732068_a_at) / RFU TMCC2 (11721928_a_at) / Fold change /veh TMCC2 (11721928_a_at) / RFU IRGQ (11745062_a_at) / Fold change /veh IRGQ (11745062_a_at) / RFU FAM174B (11720279_a_at) / Fold change /veh FAM174B (11720279_a_at) / RFU TMPRSS4 (11748680_a_at) / Fold change /veh TMPRSS4 (11748680_a_at) / RFU FAM212B (11763350_a_at) / Fold change /veh FAM212B (11763350_a_at) / RFU PLEKHG5 (11743358_a_at) / Fold change /veh PLEKHG5 (11743358_a_at) / RFU ZSCAN30 (11745921_a_at) / Fold change /veh ZSCAN30 (11745921_a_at) / RFU CMKLR1 (11741424_a_at) / Fold change /veh CMKLR1 (11741424_a_at) / RFU LOC101060620 /// MAPK8IP1 (11723275_at) / Fold change /veh LOC101060620 /// MAPK8IP1 (11723275_at) / RFU SPTSSB (11747773_x_at) / Fold change /veh SPTSSB (11747773_x_at) / RFU PRSS12 (11739890_at) / Fold change /veh PRSS12 (11739890_at) / RFU BIN1 (11741810_x_at) / Fold change /veh BIN1 (11741810_x_at) / RFU WNT11 (11732464_a_at) / Fold change /veh WNT11 (11732464_a_at) / RFU C10orf10 (11716521_a_at) / Fold change /veh C10orf10 (11716521_a_at) / RFU C5orf56 (11738089_at) / Fold change /veh C5orf56 (11738089_at) / RFU CYB561 (11721691_x_at) / Fold change /veh CYB561 (11721691_x_at) / RFU ANKRD19P (11752326_a_at) / Fold change /veh ANKRD19P (11752326_a_at) / RFU OR2T12 /// OR2T33 /// OR2T8 (11738714_s_at) / Fold change /veh OR2T12 /// OR2T33 /// OR2T8 (11738714_s_at) / RFU VCAN (11748164_a_at) / Fold change /veh VCAN (11748164_a_at) / RFU JSRP1 (11732532_at) / Fold change /veh JSRP1 (11732532_at) / RFU KRTAP10-11 (11738290_x_at) / Fold change /veh KRTAP10-11 (11738290_x_at) / RFU MYO3A (11730013_a_at) / Fold change /veh MYO3A (11730013_a_at) / RFU EBF3 (11725865_a_at) / Fold change /veh EBF3 (11725865_a_at) / RFU CAMK2N1 (11719241_x_at) / Fold change /veh CAMK2N1 (11719241_x_at) / RFU C5orf56 (11738088_a_at) / Fold change /veh C5orf56 (11738088_a_at) / RFU OLFML3 (11715873_a_at) / Fold change /veh OLFML3 (11715873_a_at) / RFU LOC100653217 /// NTM (11731650_a_at) / Fold change /veh LOC100653217 /// NTM (11731650_a_at) / RFU MAPK11 (11762145_a_at) / Fold change /veh MAPK11 (11762145_a_at) / RFU FIZ1 (11724087_x_at) / Fold change /veh FIZ1 (11724087_x_at) / RFU OASL (11726364_x_at) / Fold change /veh OASL (11726364_x_at) / RFU SOX15 (11748057_x_at) / Fold change /veh SOX15 (11748057_x_at) / RFU CD79A (11719716_a_at) / Fold change /veh CD79A (11719716_a_at) / RFU HIST1H1D (11736915_at) / Fold change /veh HIST1H1D (11736915_at) / RFU CASKIN2 (11723855_a_at) / Fold change /veh CASKIN2 (11723855_a_at) / RFU LOC730098 (11760151_x_at) / Fold change /veh LOC730098 (11760151_x_at) / RFU OR4N2 (11742367_at) / Fold change /veh OR4N2 (11742367_at) / RFU PRRT2 (11749266_a_at) / Fold change /veh PRRT2 (11749266_a_at) / RFU SNX32 (11753110_a_at) / Fold change /veh SNX32 (11753110_a_at) / RFU CDHR5 (11726645_a_at) / Fold change /veh CDHR5 (11726645_a_at) / RFU RCAN1 (11760418_a_at) / Fold change /veh RCAN1 (11760418_a_at) / RFU FAM167A (11723789_a_at) / Fold change /veh FAM167A (11723789_a_at) / RFU FAM26E (11764081_at) / Fold change /veh FAM26E (11764081_at) / RFU ISYNA1 (11749810_s_at) / Fold change /veh ISYNA1 (11749810_s_at) / RFU ACY1 (11761880_at) / Fold change /veh ACY1 (11761880_at) / RFU 11764098_at / Fold change /veh 11764098_at / RFU SAMD14 (11745864_x_at) / Fold change /veh SAMD14 (11745864_x_at) / RFU NPB (11741838_a_at) / Fold change /veh NPB (11741838_a_at) / RFU TMPRSS6 (11731388_a_at) / Fold change /veh TMPRSS6 (11731388_a_at) / RFU KRTAP10-2 (11738614_at) / Fold change /veh KRTAP10-2 (11738614_at) / RFU ARHGAP8 /// PRR5-ARHGAP8 (11727945_x_at) / Fold change /veh ARHGAP8 /// PRR5-ARHGAP8 (11727945_x_at) / RFU KRTAP5-7 /// NADSYN1 (11734609_at) / Fold change /veh KRTAP5-7 /// NADSYN1 (11734609_at) / RFU RASL12 (11751679_a_at) / Fold change /veh RASL12 (11751679_a_at) / RFU CDKN2B (11736163_a_at) / Fold change /veh CDKN2B (11736163_a_at) / RFU PRF1 (11729649_at) / Fold change /veh PRF1 (11729649_at) / RFU, ZNF638 /// ZNF638-IT1 / Fold change vs veh, ZNF638 /// ZNF638-IT1 / RFU, PANK3 / Fold change vs veh, PANK3 / RFU, SH3YL1 / Fold change vs veh, SH3YL1 / RFU, ZEB2 / Fold change vs veh, ZEB2 / RFU, NRIP1 / Fold change vs veh, NRIP1 / RFU, PTTG1IP / Fold change vs veh, PTTG1IP / RFU, CAPN2 / Fold change vs veh, CAPN2 / RFU, MED14 / Fold change vs veh, MED14 / RFU, SNORA58 / Fold change vs veh, SNORA58 / RFU, C1orf63 / Fold change vs veh, C1orf63 / RFU, LRRFIP1 / Fold change vs veh, LRRFIP1 / RFU, NDUFAF7 / Fold change vs veh, NDUFAF7 / RFU, SLC12A2 / Fold change vs veh, SLC12A2 / RFU, IBTK / Fold change vs veh, IBTK / RFU, ESF1 / Fold change vs veh, ESF1 / Fold change vs veh, TMEM50B / RFU, TAOK1 / Fold change vs veh, TAOK1 / RFU, ACBD3 / Fold change vs veh, ACBD3 / RFU, TMA16 / Fold change vs veh, TMA16 / RFU, RWDD3 / Fold change vs veh, RWDD3 / RFU, BCAT1 / Fold change vs veh, BCAT1 / RFU, EDEM3 / Fold change vs veh, EDEM3 / RFU, TMEM33 / Fold change vs veh, TMEM33 / RFU, WDR75 / Fold change vs veh, WDR75 / RFU, AHCTF1 / Fold change vs veh, AHCTF1 / RFU, TFRC / Fold change vs veh, TFRC / RFU, ZDHHC17 / Fold change vs veh, ZDHHC17 / RFU, NOM1 / Fold change vs veh, NOM1 / RFU, ARL8B / Fold change vs veh, ARL8B / RFU, ZBTB11 / Fold change vs veh, ZBTB11 / RFU, TAMM41 / Fold change vs veh, TAMM41 / RFU, KIAA1704 /// LOC100996395 / Fold change vs veh, KIAA1704 /// LOC100996395 / RFU, ING1 / Fold change vs veh, ING1 / RFU, TRMT61B / Fold change vs veh, TRMT61B / RFU, FUBP3 / Fold change vs veh, FUBP3 / RFU, TP53 / Fold change vs veh, TP53 / RFU, TNKS2 / Fold change vs veh, TNKS2 / RFU, ZFP14 / Fold change vs veh, ZFP14 / RFU, ACTR2 / Fold change vs veh, ACTR2 / RFU, PPP3R1 / Fold change vs veh, PPP3R1 / RFU, PIK3R1 / Fold change vs veh, PIK3R1 / RFU, HNRNPA1 / Fold change vs veh, HNRNPA1 / RFU, RNF170 / Fold change vs veh, RNF170 / RFU, ZNF28 / Fold change vs veh, ZNF28 / RFU, RNGTT / Fold change vs veh, RNGTT / RFU, OGT / Fold change vs veh, OGT / RFU, BRD1 / Fold change vs veh, BRD1 / RFU, MARS / Fold change vs veh, MARS / RFU, ZNF655 / Fold change vs veh, ZNF655 / RFU, FAHD1 / Fold change vs veh, FAHD1 / RFU, BDP1 / Fold change vs veh, BDP1 / RFU, LRRCC1 / Fold change vs veh, LRRCC1 / RFU, ARID1A / Fold change vs veh, ARID1A / RFU, ZNF146 / Fold change vs veh, ZNF146 / RFU, ZNF330 / Fold change vs veh, ZNF330 / RFU, GPN3 / Fold change vs veh, GPN3 / RFU, C9orf123 / Fold change vs veh, C9orf123 / RFU, N4BP2L2 / Fold change vs veh, N4BP2L2 / RFU, ARFIP1 / Fold change vs veh, ARFIP1 / RFU, FAM179B / Fold change vs veh, FAM179B / RFU, BCL10 / Fold change vs veh, BCL10 / RFU, UHRF1BP1L / Fold change vs veh, UHRF1BP1L / RFU, BET1 / Fold change vs veh, BET1 / RFU, CNOT2 / Fold change vs veh, CNOT2 / RFU, ZNF268 / Fold change vs veh, ZNF268 / Fold change vs veh, ZNF507 / RFU, DGCR2 / Fold change vs veh, DGCR2 / RFU, WDSUB1 / Fold change vs veh, WDSUB1 / Fold change vs veh, HSP90B1 /// MIR3652 / RFU, ADSS / Fold change vs veh, ADSS / RFU, GK / Fold change vs veh, GK / RFU, ZNF148 / Fold change vs veh, ZNF148 / RFU, TAF9 / Fold change vs veh, TAF9 / RFU, SLC1A5 / Fold change vs veh, SLC1A5 / RFU, SLMO2 / Fold change vs veh, SLMO2 / RFU, ABCC4 / Fold change vs veh, ABCC4 / RFU, LOC101060439 /// RAP1B / Fold change vs veh, LOC101060439 /// RAP1B / RFU, RFX7 / Fold change vs veh, RFX7 / RFU, GTPBP10 / Fold change vs veh, GTPBP10 / RFU, CNEP1R1 / Fold change vs veh, CNEP1R1 / RFU, BIVM-ERCC5 /// ERCC5 / Fold change vs veh, BIVM-ERCC5 /// ERCC5 / RFU, ILF3 / Fold change vs veh, ILF3 / RFU 11762660_at / Fold change /veh 11762660_at / RFU VCAN (11757783_s_at) / Fold change /veh VCAN (11757783_s_at) / RFU DDX43 (11728927_at) / Fold change /veh DDX43 (11728927_at) / RFU KRT8 (11758188_x_at) / Fold change /veh KRT8 (11758188_x_at) / RFU NKD1 (11759106_at) / Fold change /veh NKD1 (11759106_at) / RFU SRD5A1 (11742802_a_at) / Fold change /veh SRD5A1 (11742802_a_at) / RFU TPSAB1 /// TPSB2 (11721975_s_at) / Fold change /veh TPSAB1 /// TPSB2 (11721975_s_at) / RFU GSTM3 (11746129_a_at) / Fold change /veh GSTM3 (11746129_a_at) / RFU IL23R (11737362_x_at) / Fold change /veh IL23R (11737362_x_at) / RFU TMEM51 (11727254_a_at) / Fold change /veh TMEM51 (11727254_a_at) / RFU PIWIL2 (11732686_x_at) / Fold change /veh PIWIL2 (11732686_x_at) / RFU ORM1 (11744905_x_at) / Fold change /veh ORM1 (11744905_x_at) / RFU CCDC152 (11743942_at) / Fold change /veh CCDC152 (11743942_at) / RFU ECM1 (11717891_a_at) / Fold change /veh ECM1 (11717891_a_at) / RFU IL23R (11748794_a_at) / Fold change /veh IL23R (11748794_a_at) / RFU TNFAIP8L3 (11732012_x_at) / Fold change /veh TNFAIP8L3 (11732012_x_at) / RFU MBOAT4 (11741988_at) / Fold change /veh MBOAT4 (11741988_at) / RFU 11764193_at / Fold change /veh 11764193_at / RFU TMEM53 (11763286_at) / Fold change /veh TMEM53 (11763286_at) / RFU MAGEB2 (11727129_at) / Fold change /veh MAGEB2 (11727129_at) / RFU TMEM200A (11744735_a_at) / Fold change /veh TMEM200A (11744735_a_at) / RFU CCDC152 (11751479_a_at) / Fold change /veh CCDC152 (11751479_a_at) / RFU FAM211A (11726209_a_at) / Fold change /veh FAM211A (11726209_a_at) / RFU RGS16 (11746705_a_at) / Fold change /veh RGS16 (11746705_a_at) / RFU VCAN (11755009_s_at) / Fold change /veh VCAN (11755009_s_at) / RFU RHOB (11743442_s_at) / Fold change /veh RHOB (11743442_s_at) / RFU RGS16 (11720943_a_at) / Fold change /veh RGS16 (11720943_a_at) / RFU RGS16 (11720944_at) / Fold change /veh RGS16 (11720944_at) / RFU, VPS4B / Fold change vs veh, VPS4B / RFU, CREB1 / Fold change vs veh, CREB1 / RFU, DNAJC13 / Fold change vs veh, DNAJC13 / RFU, GNAQ / Fold change vs veh, GNAQ / RFU, CDK5R1 / Fold change vs veh, CDK5R1 / RFU, ZRANB3 / Fold change vs veh, ZRANB3 / RFU, CUL4A / Fold change vs veh, CUL4A / RFU, CCNY / Fold change vs veh, CCNY / RFU, UFL1 / Fold change vs veh, UFL1 / RFU, COG3 / Fold change vs veh, COG3 / RFU, DIAPH2 / Fold change vs veh, DIAPH2 / RFU, SKA2 / Fold change vs veh, SKA2 / RFU, AFF3 / Fold change vs veh, AFF3 / RFU, LMF1 / Fold change vs veh, LMF1 / RFU, IPO11 / Fold change vs veh, IPO11 / RFU, DFFB / Fold change vs veh, DFFB / RFU, FOXP1 / Fold change vs veh, FOXP1 / RFU, CARD8 / Fold change vs veh, CARD8 / RFU, STRN3 / Fold change vs veh, STRN3 / RFU, ADK / Fold change vs veh, ADK / RFU, RASSF2 / Fold change vs veh, RASSF2 / RFU, WIPF1 / Fold change vs veh, WIPF1 / RFU, LARP1B / Fold change vs veh, LARP1B / RFU, RASA1 / Fold change vs veh, RASA1 / RFU, RB1 / Fold change vs veh, RB1 / RFU, PPFIA1 / Fold change vs veh, PPFIA1 / RFU, MAT2A / Fold change vs veh, MAT2A / RFU, CCT5 / Fold change vs veh, CCT5 / RFU, WDR92 / Fold change vs veh, WDR92 / RFU, CUX1 / Fold change vs veh, CUX1 / RFU, TTC7A / Fold change vs veh, TTC7A / RFU, TMEM135 / Fold change vs veh, TMEM135 / RFU, DEPTOR / Fold change vs veh, DEPTOR / RFU, CPM / Fold change vs veh, CPM / RFU, DNAJB6 / Fold change vs veh, DNAJB6 / RFU, CACNA2D3 / Fold change vs veh, CACNA2D3 / RFU, DTX4 / Fold change vs veh, DTX4 / RFU, TFCP2 / Fold change vs veh, TFCP2 / RFU, GMCL1 /// GMCL1P1 / Fold change vs veh, GMCL1 /// GMCL1P1 / RFU, AEBP2 / Fold change vs veh, AEBP2 / RFU, SNHG1 /// SNORD22 /// SNORD25 /// SNORD26 /// SNORD27 /// SNORD28 /// SNORD29 /// SNORD31 / Fold change vs veh, SNHG1 /// SNORD22 /// SNORD25 /// SNORD26 /// SNORD27 /// SNORD28 /// SNORD29 /// SNORD31 / Fold change (Aza/veh), C12orf56 (ProbeSet 11735607_a_at) / Fold change (ACY-1035/veh), C12orf56 (ProbeSet 11735607_a_at) / Fold change (Aza/veh), FGFR1OP (ProbeSet 11751329_s_at) / Fold change (ACY-1035/veh), FGFR1OP (ProbeSet 11751329_s_at) / Fold change (Aza/veh), VPS36 (ProbeSet 11739960_a_at) / Fold change (ACY-1035/veh), VPS36 (ProbeSet 11739960_a_at) / RFU SYPL1 (11715823_x_at) / Fold change /veh SYPL1 (11715823_x_at) / RFU IGFBP7 (11715501_s_at) / Fold change /veh IGFBP7 (11715501_s_at) / RFU REEP3 (11722064_at) / Fold change /veh REEP3 (11722064_at) / RFU IGLL1 (11728026_x_at) / Fold change /veh IGLL1 (11728026_x_at): dose or concentration left out as unconfirmed
# Conditions: MV-4-11 cells, 48 hours
smiles,measurement,value
Nc1ncn([C@@H]2O[C@H](CO)[C@@H](O)[C@H]2O)c(=O)n1 [azacitidine],Fold change /veh ARHGAP8 /// PRR5-ARHGAP8 (11727945_x_at),0.99
